# Article PMC3375280 (PLoS ONE, 2012)
# Biological target: T1, AT1 C76A/F117C/C289A mutant receptor (Rattus norvegicus, UniProt P25095, C289A/C76A/F117C)
# T1 construct: expressed in transfected cells; host or cells: COS1 cells (membranes)
# T1 sequence (P25095 1-359 C76A/F117C/C289A): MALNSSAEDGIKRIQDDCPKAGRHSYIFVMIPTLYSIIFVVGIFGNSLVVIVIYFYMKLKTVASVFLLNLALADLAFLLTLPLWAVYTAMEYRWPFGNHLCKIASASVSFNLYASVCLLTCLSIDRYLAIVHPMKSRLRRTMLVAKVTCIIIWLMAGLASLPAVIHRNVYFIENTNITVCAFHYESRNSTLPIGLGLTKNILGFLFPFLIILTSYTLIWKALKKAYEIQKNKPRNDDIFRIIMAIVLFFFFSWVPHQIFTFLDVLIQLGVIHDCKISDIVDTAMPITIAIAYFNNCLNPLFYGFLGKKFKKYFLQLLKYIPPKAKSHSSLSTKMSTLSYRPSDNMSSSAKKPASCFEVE
# Assay: substituted cysteine accessibility mapping (SCAM), C76A/F117C/C289A
# Type: binding
# Parameters: key: Less and More indicate that the AT1 receptor is less or more accessible to the ligand pocket, respectively; Less and More indicate that the AT1 receptor is less or more accessible to the ligand pocket, respectively; No change
# Settings: 1 µM ARB, […] MTSEA+, COS1 membranes
# Excerpt: As we reported previously, the percentage (%) inhibition of ^125I-[Sar^1, Ile^8] AngII binding by methanethiosulphonate ethyl-ammonium (MTSEA^+) reagent was approximately 30% on AT1 receptor, since Cys^76 in TM2 was accessible to water within the ligand pocket. In addition, mechanical stretching increased the accessibility of Cys^289 by inducing a change in the conformation of TM7 [22]. To differentiate between single and multiple movements of one or more native cysteines, we created TM3 residues that were substituted with cysteine one at a time from […] to Phe^117 using the C76A/C289A mutant genetic background and evaluated each triple mutant for MTSEA sensitivity.
# Figure 3 Changes in cysteine accessibility in COS1 cells expressing C76A/C289A mutant receptors in which the transmenbrane 3 residues from Ala^106 to Phe^117, except for position 113, were successively replaced by cysteine. 1 µM of ARBs, n=4–9, *p<0.05 vs. no treatment. #p<0.05 vs. C76A/C289A.
# The SCAM method has been used to probe relative changes in the conformation of constitutively active AT1 receptor [20]–[22] and other GPCRs, [30] by validating the presence of Cys residues within the ligand pocket. We used a highly reactive, sulfhydryl-specific reaction with methanethiosulfonyl ethyl-ammonium (MTSEA^+), which reacts a billion times faster with water-exposed and ionized Cys than with lipid-exposed and un-ionized Cys. In this reaction, a positively charged sulfonylmethylammonium group is added to a water-exposed Cys. Aliquots of cell membranes are incubated with or without ARBs for 20 min in phosphate buffer at room temperature. The membranes are then diluted with same buffer and centrifuged. After washout the cell membranes, the membranes are incubated with 2.5 mM MTSEA^+ at room temperature for 2 min in HEPES buffer (pH7.4). The Membranes are then diluted with same buffer to stop the reaction and centrifuged. One hundred µl aliquots were used to assay for ^125I-[Sar^1,Ile^8]Ang II binding. […]
Cysteine accessibility at Phe117 compared to ligand (-),Cysteine accessibility at Phe117 compared to ligand (-) (listed as olmesartan),Compound
More,greater accessibility,"CCCc1nc(C(C)(C)O)c(C(=O)O)n1Cc1ccc(-c2ccccc2-c2nnn[nH]2)cc1 [Olmesartan, olmesartan, reference compound]"
No change,–,CCCc1nc(C(C)(C)O)c(C(N)=O)n1Cc1ccc(-c2ccccc2-c2nnn[nH]2)cc1 [R239470]
